Active and inactive are the calls of the source. The calls are words filed in the database; no cut-off is given here.
Experiments:
Protein polybromo-1 [1] = molecular target: T1, Protein polybromo-1 (Homo sapiens, UniProt Q86U86)
Description: Binding affinity to His6-tagged human recombinant PB1 bromodomain isoform 5 expressed in Escherichia coli BL21(DE3)-R3-pRARE2 cells assessed as change in melting temperature at 10 uM by SyproOrange dye based DSF thermal shift assay

[2] = molecular target: T2, SWI/SNF-related matrix-associated actin-dependent regulator of chromatin subfamily A member 4 (Homo sapiens, UniProt P51532); experiment: Binding affinity to His6-tagged human recombinant SMARCA4 bromodomain expressed in Escherichia coli BL21(DE3)-R3-pRARE2 cells assessed as change in melting temperature at 10 uM by SyproOrange dye based DSF thermal shift assay
[3] = molecular target: SWI/SNF-related matrix-associated actin-dependent regulator of chromatin subfamily A member 2 (Homo sapiens) (UniProt P51531); experiment: Binding affinity to His6-tagged human recombinant SMARCA2A bromodomain expressed in Escherichia coli BL21(DE3)-R3-pRARE2 cells assessed as change in melting temperature at 10 uM by SyproOrange dye based DSF thermal shift assay
[4] = molecular target: SWI/SNF-related matrix-associated actin-dependent regulator of chromatin subfamily A member 2 (Homo sapiens) (UniProt P51531); experiment: Binding affinity to His6-tagged human recombinant SMARCA2B bromodomain expressed in Escherichia coli BL21(DE3)-R3-pRARE2 cells assessed as change in melting temperature at 10 uM by SyproOrange dye based DSF thermal shift assay
Protein polybromo-1 [5] = molecular target: T1, Protein polybromo-1; remark: listed apart in the source
Description: Binding affinity to His6-tagged human recombinant PB1 bromodomain isoform 2 expressed in Escherichia coli BL21(DE3)-R3-pRARE2 cells assessed as change in melting temperature at 10 uM by SyproOrange dye based DSF thermal shift assay

Protein polybromo-1 [6] = molecular target: T1, Protein polybromo-1; remark: listed apart in the source
Description: Binding affinity to His6-tagged human recombinant PB1 bromodomain 4 expressed in Escherichia coli BL21(DE3)-R3-pRARE2 cells assessed as change in melting temperature at 10 uM by SyproOrange dye based DSF thermal shift assay

Protein polybromo-1 [7] = molecular target: T1, Protein polybromo-1; remark: listed apart in the source
Description: Binding affinity to His6-tagged human recombinant PB1 bromodomain isoform 3 expressed in Escherichia coli BL21(DE3)-R3-pRARE2 cells assessed as change in melting temperature at 10 uM by SyproOrange dye based DSF thermal shift assay

[8] = Solubility of the compound in DMSO; assay type: physicochemical
Protein polybromo-1 [9] = molecular target: T1, Protein polybromo-1; experiment: Binding affinity to His6-tagged human recombinant PB1 bromodomain isoform 5 expressed in Escherichia coli BL21(DE3)-R3-pRARE2 cells by VP-ITC microcalorimetry
[10] = molecular target: Bromodomain-containing protein 4 (Homo sapiens) (UniProt O60885); experiment: Binding affinity to His6-tagged human recombinant BRD4 bromodomain 1 expressed in Escherichia coli BL21(DE3)-R3-pRARE2 cells assessed as change in melting temperature at 10 uM by SyproOrange dye based DSF thermal shift assay
[11] = molecular target: CREB-binding protein (Homo sapiens) (UniProt Q92793); experiment: Binding affinity to His6-tagged human recombinant CREBBP bromodomain expressed in Escherichia coli BL21(DE3)-R3-pRARE2 cells assessed as change in melting temperature at 10 uM by SyproOrange dye based DSF thermal shift assay
[12] = molecular target: T3, E3 ubiquitin-protein ligase TRIM33 (Homo sapiens) (UniProt Q9UPN9); experiment: Binding affinity to His6-tagged human recombinant TRIM33B bromodomain expressed in Escherichia coli BL21(DE3)-R3-pRARE2 cells assessed as change in melting temperature at 10 uM by SyproOrange dye based DSF thermal shift assay
T3 sequence (whole entry): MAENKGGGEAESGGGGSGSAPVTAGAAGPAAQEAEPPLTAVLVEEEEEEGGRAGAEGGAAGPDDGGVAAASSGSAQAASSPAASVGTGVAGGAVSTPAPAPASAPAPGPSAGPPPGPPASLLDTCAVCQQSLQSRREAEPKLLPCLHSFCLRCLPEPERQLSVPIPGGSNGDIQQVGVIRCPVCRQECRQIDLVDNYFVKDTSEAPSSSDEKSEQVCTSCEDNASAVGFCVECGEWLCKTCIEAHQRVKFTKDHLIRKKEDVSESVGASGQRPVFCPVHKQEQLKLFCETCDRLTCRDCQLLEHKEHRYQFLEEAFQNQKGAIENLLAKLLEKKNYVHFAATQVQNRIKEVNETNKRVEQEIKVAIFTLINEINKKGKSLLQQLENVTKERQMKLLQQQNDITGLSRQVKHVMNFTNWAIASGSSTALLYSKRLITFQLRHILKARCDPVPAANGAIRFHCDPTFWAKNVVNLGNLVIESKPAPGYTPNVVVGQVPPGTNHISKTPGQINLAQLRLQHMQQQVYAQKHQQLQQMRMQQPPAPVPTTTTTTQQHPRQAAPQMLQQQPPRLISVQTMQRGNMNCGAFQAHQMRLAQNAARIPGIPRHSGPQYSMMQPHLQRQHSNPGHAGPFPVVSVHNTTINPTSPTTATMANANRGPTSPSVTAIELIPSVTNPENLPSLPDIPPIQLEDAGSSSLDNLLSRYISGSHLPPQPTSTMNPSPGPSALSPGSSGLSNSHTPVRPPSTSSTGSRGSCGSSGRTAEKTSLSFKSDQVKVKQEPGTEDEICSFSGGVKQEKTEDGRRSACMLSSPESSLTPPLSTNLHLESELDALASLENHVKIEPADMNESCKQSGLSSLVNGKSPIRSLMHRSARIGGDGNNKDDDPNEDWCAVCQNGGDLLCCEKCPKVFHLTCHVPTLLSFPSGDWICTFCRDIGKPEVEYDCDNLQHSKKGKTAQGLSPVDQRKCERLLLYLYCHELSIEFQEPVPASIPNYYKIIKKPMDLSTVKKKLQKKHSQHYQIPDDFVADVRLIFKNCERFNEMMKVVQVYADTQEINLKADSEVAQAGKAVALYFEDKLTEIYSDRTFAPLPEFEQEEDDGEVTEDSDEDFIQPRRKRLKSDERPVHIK

[13] = molecular target: Histone acetyltransferase KAT2B (Homo sapiens) (UniProt Q92831); experiment: Binding affinity to His6-tagged human recombinant PCAF bromodomain expressed in Escherichia coli BL21(DE3)-R3-pRARE2 cells assessed as change in melting temperature at 10 uM by SyproOrange dye based DSF thermal shift assay
[14] = molecular target: SWI/SNF-related matrix-associated actin-dependent regulator of chromatin subfamily A member 2 (Homo sapiens) (UniProt P51531); experiment: Inhibition of GFP-fused N-terminal full length human recombinant Wild type SMARCA2 transfected in human U2OS cells assessed as displacement of SMARCA2 from chromatin by measuring FRAP recovery time at 1 to 5 uM by laser scanning inverted microscopy relative to control; assay type: cell-based
[15] = molecular target: T2, SWI/SNF-related matrix-associated actin-dependent regulator of chromatin subfamily A member 4; experiment: biochemical
[16] = molecular target: T2, SWI/SNF-related matrix-associated actin-dependent regulator of chromatin subfamily A member 4; experiment: Inhibition of His6-tagged human recombinant SMARCA4 bromodomain expressed in Escherichia coli BL21(DE3)-R3-pRARE2 cells after 30 mins using biotinylated ligand by Alpha screen displacement assay

T1 sequence (Q86U86 whole entry): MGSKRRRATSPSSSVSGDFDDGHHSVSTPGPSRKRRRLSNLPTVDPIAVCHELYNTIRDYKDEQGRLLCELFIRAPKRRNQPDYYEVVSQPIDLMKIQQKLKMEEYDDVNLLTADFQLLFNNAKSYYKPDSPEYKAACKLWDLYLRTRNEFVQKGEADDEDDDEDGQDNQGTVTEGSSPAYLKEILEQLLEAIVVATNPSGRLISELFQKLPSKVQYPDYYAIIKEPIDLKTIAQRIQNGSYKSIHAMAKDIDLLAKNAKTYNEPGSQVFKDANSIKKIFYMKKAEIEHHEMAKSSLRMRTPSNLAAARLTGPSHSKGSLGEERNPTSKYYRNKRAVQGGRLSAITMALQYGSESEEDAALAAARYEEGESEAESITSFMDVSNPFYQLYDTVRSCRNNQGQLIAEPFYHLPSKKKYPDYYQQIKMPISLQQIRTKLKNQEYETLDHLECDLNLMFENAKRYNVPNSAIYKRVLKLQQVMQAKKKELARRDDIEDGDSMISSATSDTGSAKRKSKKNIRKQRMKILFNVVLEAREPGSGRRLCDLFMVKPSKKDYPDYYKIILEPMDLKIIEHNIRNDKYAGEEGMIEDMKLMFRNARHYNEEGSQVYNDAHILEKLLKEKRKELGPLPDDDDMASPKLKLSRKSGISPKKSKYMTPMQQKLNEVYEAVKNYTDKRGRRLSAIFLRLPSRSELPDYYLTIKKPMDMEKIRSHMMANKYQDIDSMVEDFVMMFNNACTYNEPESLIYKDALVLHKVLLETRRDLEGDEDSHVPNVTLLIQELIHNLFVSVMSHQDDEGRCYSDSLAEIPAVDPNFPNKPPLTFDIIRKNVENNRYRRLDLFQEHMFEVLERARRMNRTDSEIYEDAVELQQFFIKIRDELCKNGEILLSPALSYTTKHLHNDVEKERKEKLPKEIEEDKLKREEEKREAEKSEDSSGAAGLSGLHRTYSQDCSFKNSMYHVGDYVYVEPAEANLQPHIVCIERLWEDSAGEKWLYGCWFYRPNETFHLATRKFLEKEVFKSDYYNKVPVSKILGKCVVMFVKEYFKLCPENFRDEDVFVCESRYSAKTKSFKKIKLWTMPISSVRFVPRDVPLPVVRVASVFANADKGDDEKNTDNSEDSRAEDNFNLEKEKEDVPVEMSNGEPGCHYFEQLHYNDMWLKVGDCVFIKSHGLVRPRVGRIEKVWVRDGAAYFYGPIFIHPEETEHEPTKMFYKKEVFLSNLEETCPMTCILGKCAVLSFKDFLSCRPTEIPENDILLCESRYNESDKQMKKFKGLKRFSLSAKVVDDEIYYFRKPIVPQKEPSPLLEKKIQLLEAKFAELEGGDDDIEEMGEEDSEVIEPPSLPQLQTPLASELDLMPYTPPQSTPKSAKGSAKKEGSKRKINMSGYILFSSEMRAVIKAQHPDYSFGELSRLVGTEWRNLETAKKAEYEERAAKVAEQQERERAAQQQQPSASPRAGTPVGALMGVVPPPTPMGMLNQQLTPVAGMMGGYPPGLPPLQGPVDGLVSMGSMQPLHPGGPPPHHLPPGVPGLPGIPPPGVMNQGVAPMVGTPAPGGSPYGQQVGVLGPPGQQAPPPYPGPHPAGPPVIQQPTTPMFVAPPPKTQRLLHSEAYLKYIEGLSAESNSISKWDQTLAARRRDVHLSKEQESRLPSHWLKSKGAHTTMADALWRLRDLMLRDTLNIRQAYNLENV
T2 sequence (P51532 whole entry): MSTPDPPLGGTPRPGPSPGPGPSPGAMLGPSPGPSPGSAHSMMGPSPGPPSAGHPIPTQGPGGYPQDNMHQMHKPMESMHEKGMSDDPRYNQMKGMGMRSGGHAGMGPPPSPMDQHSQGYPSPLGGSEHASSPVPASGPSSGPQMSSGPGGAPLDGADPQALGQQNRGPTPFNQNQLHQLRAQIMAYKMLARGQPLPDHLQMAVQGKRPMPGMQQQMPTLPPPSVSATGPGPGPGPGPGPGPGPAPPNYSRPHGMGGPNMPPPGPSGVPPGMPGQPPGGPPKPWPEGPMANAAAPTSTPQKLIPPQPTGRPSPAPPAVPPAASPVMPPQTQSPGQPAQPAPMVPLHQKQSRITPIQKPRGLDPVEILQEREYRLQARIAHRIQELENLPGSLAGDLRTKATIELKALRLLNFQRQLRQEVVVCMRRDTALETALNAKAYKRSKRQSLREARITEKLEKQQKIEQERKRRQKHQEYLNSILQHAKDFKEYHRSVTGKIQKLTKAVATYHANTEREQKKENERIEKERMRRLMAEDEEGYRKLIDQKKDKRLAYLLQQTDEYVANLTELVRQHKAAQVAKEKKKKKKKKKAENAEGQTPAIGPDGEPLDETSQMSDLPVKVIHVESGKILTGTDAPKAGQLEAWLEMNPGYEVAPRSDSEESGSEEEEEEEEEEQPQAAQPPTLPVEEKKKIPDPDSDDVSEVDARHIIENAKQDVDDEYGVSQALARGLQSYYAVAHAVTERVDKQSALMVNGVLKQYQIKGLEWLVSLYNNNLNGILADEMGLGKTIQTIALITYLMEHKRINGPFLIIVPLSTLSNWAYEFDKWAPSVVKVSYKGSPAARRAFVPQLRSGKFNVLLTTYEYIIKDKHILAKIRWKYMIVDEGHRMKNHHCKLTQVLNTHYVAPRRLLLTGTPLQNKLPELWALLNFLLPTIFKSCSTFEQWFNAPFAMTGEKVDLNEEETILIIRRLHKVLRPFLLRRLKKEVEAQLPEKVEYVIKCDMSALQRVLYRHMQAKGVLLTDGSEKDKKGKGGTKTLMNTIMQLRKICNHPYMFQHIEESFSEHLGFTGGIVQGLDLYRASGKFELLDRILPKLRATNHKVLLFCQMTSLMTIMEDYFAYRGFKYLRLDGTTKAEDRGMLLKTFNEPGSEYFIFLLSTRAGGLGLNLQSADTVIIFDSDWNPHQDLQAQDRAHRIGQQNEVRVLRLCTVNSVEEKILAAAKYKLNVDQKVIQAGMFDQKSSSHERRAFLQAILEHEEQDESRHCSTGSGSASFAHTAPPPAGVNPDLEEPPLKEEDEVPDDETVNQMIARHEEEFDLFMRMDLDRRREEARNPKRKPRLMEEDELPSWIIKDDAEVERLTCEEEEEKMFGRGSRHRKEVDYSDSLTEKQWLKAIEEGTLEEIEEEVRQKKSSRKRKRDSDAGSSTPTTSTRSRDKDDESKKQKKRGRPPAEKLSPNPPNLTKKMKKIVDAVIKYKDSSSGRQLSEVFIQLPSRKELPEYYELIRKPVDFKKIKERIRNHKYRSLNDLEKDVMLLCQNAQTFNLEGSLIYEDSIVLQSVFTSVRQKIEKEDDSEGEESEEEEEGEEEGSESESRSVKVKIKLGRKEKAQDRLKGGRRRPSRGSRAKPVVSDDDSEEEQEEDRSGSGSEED
Sequence of SWI/SNF-related matrix-associated actin-dependent regulator of chromatin subfamily A member 2 (Homo sapiens) (P51531 whole entry, the tested form may be a part): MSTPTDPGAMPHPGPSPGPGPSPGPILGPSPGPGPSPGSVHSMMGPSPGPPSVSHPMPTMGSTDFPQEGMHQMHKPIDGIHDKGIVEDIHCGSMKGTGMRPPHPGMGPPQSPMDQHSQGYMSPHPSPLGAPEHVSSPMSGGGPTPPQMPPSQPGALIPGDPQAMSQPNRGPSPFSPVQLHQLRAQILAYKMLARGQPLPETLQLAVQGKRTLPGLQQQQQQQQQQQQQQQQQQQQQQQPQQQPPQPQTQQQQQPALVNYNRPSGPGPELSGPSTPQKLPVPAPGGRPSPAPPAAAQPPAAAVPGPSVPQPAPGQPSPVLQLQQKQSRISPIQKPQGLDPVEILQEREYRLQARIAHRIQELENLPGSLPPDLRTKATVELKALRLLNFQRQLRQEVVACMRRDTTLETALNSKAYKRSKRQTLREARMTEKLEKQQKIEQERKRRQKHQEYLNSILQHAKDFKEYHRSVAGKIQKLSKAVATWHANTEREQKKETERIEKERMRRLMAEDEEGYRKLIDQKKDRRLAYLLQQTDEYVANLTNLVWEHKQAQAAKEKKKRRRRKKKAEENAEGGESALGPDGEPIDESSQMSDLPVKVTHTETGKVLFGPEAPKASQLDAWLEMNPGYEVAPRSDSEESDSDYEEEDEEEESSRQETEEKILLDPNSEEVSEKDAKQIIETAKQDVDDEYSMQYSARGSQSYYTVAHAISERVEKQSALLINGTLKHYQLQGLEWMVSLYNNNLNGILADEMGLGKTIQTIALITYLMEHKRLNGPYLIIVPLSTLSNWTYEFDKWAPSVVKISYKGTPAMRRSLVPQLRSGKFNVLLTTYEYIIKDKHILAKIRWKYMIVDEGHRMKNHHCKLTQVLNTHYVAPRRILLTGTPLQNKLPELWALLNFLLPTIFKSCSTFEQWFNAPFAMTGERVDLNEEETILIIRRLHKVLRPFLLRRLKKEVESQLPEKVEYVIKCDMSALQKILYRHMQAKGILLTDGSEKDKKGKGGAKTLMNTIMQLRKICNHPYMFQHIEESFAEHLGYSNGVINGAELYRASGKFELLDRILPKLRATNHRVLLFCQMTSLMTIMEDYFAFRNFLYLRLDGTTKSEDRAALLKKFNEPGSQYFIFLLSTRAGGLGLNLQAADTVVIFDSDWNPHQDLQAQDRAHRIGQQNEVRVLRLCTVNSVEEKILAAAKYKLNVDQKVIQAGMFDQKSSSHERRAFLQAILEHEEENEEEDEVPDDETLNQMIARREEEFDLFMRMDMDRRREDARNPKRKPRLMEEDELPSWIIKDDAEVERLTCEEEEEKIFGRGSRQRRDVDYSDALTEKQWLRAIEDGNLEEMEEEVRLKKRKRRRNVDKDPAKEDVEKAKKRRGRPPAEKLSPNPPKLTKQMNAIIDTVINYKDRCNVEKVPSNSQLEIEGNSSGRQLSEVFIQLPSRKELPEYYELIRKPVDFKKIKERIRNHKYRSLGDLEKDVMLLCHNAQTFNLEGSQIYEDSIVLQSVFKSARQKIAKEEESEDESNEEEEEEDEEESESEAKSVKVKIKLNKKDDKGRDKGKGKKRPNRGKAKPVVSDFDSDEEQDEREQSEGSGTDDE

Structure (SMILES) | ΔTm (Protein polybromo-1 [1]) [°C] | ΔTm [2] [°C] | ΔTm [3] [°C] | ΔTm [4] [°C] | ΔTm (Protein polybromo-1 [5]) [°C] | ΔTm (Protein polybromo-1 [6]) [°C] | ΔTm (Protein polybromo-1 [7]) [°C] | also measured
CCN(/C=C1\CCn2c1nc(=O)c1ccccc12)CC | 4.3 |  |  |  |  |  |  | 
CN1CCCN(/C=C2\CCn3c2nc(=O)c2ccccc23)CC1 | 2.5 |  |  |  |  |  |  | IC50 [16]: 22 µM
O=c1nc2n(c3ccccc13)CC/C2=C\c1ccoc1 | 3.7 |  |  |  |  |  |  | 
CCN1CCN(/C=C2\CCn3c2nc(=O)c2ccccc23)CC1 | 4.3 |  |  |  |  |  |  | IC50 [16]: 6.9 µM
CC(C)N(/C=C1\CCn2c1nc(=O)c1ccccc12)C(C)C | 1.1 |  |  |  |  |  |  | 
O=c1nc2n(c3ccccc13)CC/C2=C\N1CCCC1 | 5.8 |  |  |  |  |  |  | IC50 [16]: 9.6 µM; Kd (Protein polybromo-1 [9]): 2.3 µM
O=c1nc2n(c3ccccc13)CC/C2=C\N1CCOCC1 | 4.7 |  |  |  |  |  |  | 
O=c1nc2n(c3ccccc13)CC/C2=C\N1CCCCC1 | 5 |  |  |  |  |  |  | IC50 [16]: 6.2 µM; Kd (Protein polybromo-1 [9]): 1.2 µM
CC(C)(C)OC(=O)N1CCN(/C=C2\CCn3c2nc(=O)c2ccccc23)CC1 | 3.7 |  |  |  |  |  |  | 
CCN1CCN(/C=C2\CCn3c2nc(=O)c2c(Cl)cccc23)CC1 | 9.2 | 5.6 | 4.8 | 4.1 | 4 | 0.9 | 1.4 | solubility [8]: soluble; K (Protein polybromo-1 [9]): 7.05 ×10⁶ /M; Kd (Protein polybromo-1 [9]): 0.142 µM
CN1CCN(/C=C2\CCn3c2nc(=O)c2ccccc23)CC1 | 3.5 |  |  |  |  |  |  | IC50 [16]: 7.3 µM
CCCN(/C=C1\CCn2c1nc(=O)c1ccccc12)CCC | 4.4 |  |  |  |  |  |  | 

More lines, main results first:

ΔTm (Protein polybromo-1 [1]) [°C] | ΔTm [2] [°C] | ΔTm [3] [°C] | ΔTm [4] [°C] | ΔTm (Protein polybromo-1 [5]) [°C] | ΔTm (Protein polybromo-1 [6]) [°C] | ΔTm (Protein polybromo-1 [7]) [°C] | Structure (SMILES) | also measured
1.4 |  |  |  |  |  |  | Cc1cccc2c1c(=O)nc1n2CC/C1=C\N(C)C | 
6.6 | 2 | 2.5 | 1.6 | 2.7 | 0.7 | 0.4 | O=c1nc2n(c3cccc(Cl)c13)CC/C2=C\C1CCCCC1 | 
7.3 | 2.8 | 3.6 | 2.5 | 2.9 | 0.6 | 0.2 | CCN(/C=C1\CCn2c1nc(=O)c1c(Cl)cccc12)CC | 
-0.7 |  |  |  |  |  |  | COc1cccc2c1c(=O)nc1n2CC/C1=C\N(C)C | 
10.2 | 5.4 | 6.6 | 4.2 | 4.3 | 1.1 | 1.3 | CN1CCN(/C=C2\CCn3c2nc(=O)c2c(Cl)cccc23)CC1 | solubility [8]: soluble; K (Protein polybromo-1 [9]): 8.09 ×10⁶ /M; Activity [10]: inactive; Activity [11]: inactive; Activity [12]: inactive; Activity [13]: inactive; inhibition [14]: Active; Kd [15]: 0.417 µM
1.4 |  |  |  |  |  |  | CN(C)/C=C1\CCn2c1nc(=O)c1c(F)cccc12 | 
6.9 |  |  |  |  |  |  | CN(C)/C=C1\CCn2c1nc(=O)c1c(Br)cccc12 | 
8.2 | 2.8 | 3.4 | 2.3 | 3.4 | 1.2 | 1.6 | O=c1nc2n(c3cccc(Cl)c13)CC/C2=C\C1CCOCC1 | 
4.2 |  |  |  |  |  |  | CN(C)/C=C1\CCn2c1nc(=O)c1ccccc12 | IC50 [16]: 11 µM
6.9 | 1.4 | 2.6 | 1.3 | 1.2 | 0.4 | 0.2 | O=c1nc2n(c3cccc(Cl)c13)CC/C2=C\N1CCCC1 | 
7.4 | 2.7 | 2.8 | 1.7 | 1.9 | 0.3 | 0.4 | O=c1nc2n(c3cccc(Cl)c13)CC/C2=C\N1CCOCC1 | 
10.2 | 2.9 | 3.5 | 2.5 | 7.1 | 2.7 | 3.1 | CCC(/C=C1\CCn2c1nc(=O)c1c(Cl)cccc12)CC | K (Protein polybromo-1 [9]): 5.88 ×10⁶ /M
3.4 |  |  |  |  |  |  | CN(C)/C=C1\CCn2c1nc(=O)c1c(O)cccc12 | 
9.8 | 5.3 | 6.3 | 4.3 | 4.7 | 0.9 | 0.8 | O=c1nc2n(c3cccc(Cl)c13)CC/C2=C\N1CCCCC1 | solubility [8]: soluble; Kd (Protein polybromo-1 [9]): 0.127 µM
8.4 | 3.6 | 4.4 | 2.7 | 2.2 | 0.4 | 1 | CN(C)/C=C1\CCn2c1nc(=O)c1c(Cl)cccc12 | Kd (Protein polybromo-1 [9]): 0.137 µM
6 | 1.1 | 1.4 | 1 | 1.4 | 0.8 | 0.7 | CN1CCC(/C=C2\CCn3c2nc(=O)c2c(Cl)cccc23)CC1 | 
